melting point [°C] | SMILES
240 to 242 | Cc1nc2cccc(CNC(=O)c3cccc(F)c3)c2c(=O)n1C1CCC(=O)NC1=O (stereo not drawn) [Example 6.52, N-[3-(2,6-Dioxo-Piperidin-3-yl)-2-Methyl-4-Oxo-3,4-Dihydro-Quinazolin-5-ylmethyl]-3-Fluoro-Benzamide]
253 to 255 | Cc1nc2cccc(CNC(=O)c3ccc(C(F)(F)F)cc3)c2c(=O)n1C1CCC(=O)NC1=O (stereo not drawn) [Example 6.53, N-[3-(2,6-Dioxo-Piperidin-3-yl)-2-Methyl-4-Oxo-3,4-Dihydro-Quinazolin-5-ylmethyl]-4-Trifluoromethyl-Benzamide]
258 to 260 | Cc1nc2cccc(CNC(=O)c3ccc(OC(F)(F)F)cc3)c2c(=O)n1C1CCC(=O)NC1=O (stereo not drawn) [Example 6.54, N-[3-(2,6-Dioxo-Piperidin-3-yl)-2-Methyl-4-Oxo-3,4-Dihydro-Quinazolin-5-ylmethyl]-4-Trifluoromethoxy-Benzamide]
247 to 249 | Cc1nc2cccc(CNC(=O)c3ccccc3)c2c(=O)n1C1CCC(=O)NC1=O (stereo not drawn) [Example 6.55, N-[3-(2,6-Dioxo-Piperidin-3-yl)-2-Methyl-4-Oxo-3,4-Dihydro-Quinazolin-5-ylmethyl]-Benzamide]
271 to 273 | Cc1nc2cccc(CNC(=O)c3ccc(Cl)c(Cl)c3)c2c(=O)n1C1CCC(=O)NC1=O (stereo not drawn) [Example 6.56, 3,4-Dichloro-N-[3-(2,6-Dioxo-Piperidin-3-yl)-2-Methyl-4-Oxo-3,4-Dihydro-Quinazolin-5-ylmethyl]-Benzamide]
233 to 235 | Cc1nc2cccc(CNC(=O)c3cccc(C(F)(F)F)c3)c2c(=O)n1C1CCC(=O)NC1=O (stereo not drawn) [Example 6.57, N-[3-(2,6-Dioxo-Piperidin-3-yl)-2-Methyl-4-Oxo-3,4-Dihydro-Quinazolin-5-ylmethyl]-3-Trifluoromethyl-Benzamide]

Reference: patent US8921385B2, “5-substituted quinazolinone derivatives and compositions comprising and methods of using the same” (Celgene Corporation, priority 2006, dated 2014)
